Read-outs that look alike come from different tables or passages of the source.
Tests used:
[1] = system: human carboxylesterases and tissue esterases; details: metabolized by human carboxyesterases and tissue esterases; cited from earlier work
[2] = cited from earlier work
[3] = orally; FDA Q3C guidance; cited from earlier work
[4] = cited from earlier work; remark: listed apart in the source
[5] = Example 4a: noncompartmental pharmacokinetics of exhaled 2-butanone and 2-pentanone by mGC; assay type: in vivo, human; details: human, in vivo
Text: Test Materials. […] 2-butanol was purchased from Penta Manufacturing Company (Fairfield, N.J.). 2-pentanol and L-carvone were purchased from Sigma-Aldrich (St. Louis, Mo.). […] 2-pentanone was also used as a taggant, but we hypothesized that its inherent volatility would allow exhalation without need for metabolism. L-carvone tastes like spearmint and was used as a flavor mask. All capsules were filled on the day of the experiment.
Subject Enrollment and Protocol. This protocol (20100140) was approved by the Western Institutional Review Board (Olympia, Wash.). Healthy subjects (n=5) aged >18 years of age and of either sex were recruited. Informed, written consent was obtained from all enrolled subjects. The study consisted of a single experimental limb with six replicates per subject. Therefore, for five subjects with six replicated experiments, a total of 30 studies were performed. Subjects were free to eat ad lib prior to participation in the study. At commencement of the experiments, subjects provided a baseline breath sample (designated time 0 min) into the mGC for analysis as described subsequently. Then, subjects orally consumed the previously detailed capsule with 177 mL (6 ounces) of water. Following ingestion, we observed the breath concentration-time relationships of 2-butanone and 2-pentanone by collecting single-breath samples at times 5, 10, 15, 20, 30, 45, and 60 min. After 60 min, the experiment was concluded. After at least one day's respite, subjects returned for replicate experiments on five additional occasions.
2-Butanone and 2-Pentanone Measurement in Human Breath by mGC. Breath specimens were analyzed “real-time” to measure the concentrations of 2-butanone and 2-pentanone using the mGC (Xhale, Inc. Gainesville, Fla.) as previously described. In brief, a mouthpiece (FST®, Intoximeters, Inc., St. Louis, Mo.) was attached to the inlet of the mGC. A 15 mL side-stream sample was aspirated during a single exhalation over 5 s through this inlet port to a room temperature concentrator trap containing 4 mg of Tenax TA (Sigma-Aldrich). The trap temperature was then increased to 130° C. and the volatile components transferred to a 5 m by 0.53 mm internal diameter, metal clad, BAC-1 capillary column (Restek Corp, Bellefonte, Pa.) operated at 55° C. The effluent from the column then flowed to the metal oxide detectors. Separation of the markers from other volatile organic compounds present in the sample (i.e., acetone and isoprene) occurred in approximately 2 min. Data were tabulated and graphically presented over time to determine the concentrations of 2-butanone and 2-pentanone in a given breath specimen. Data are reported in parts-per-billion (ppb) based on molar fractions to account for differing ambient atmospheric pressures and temperature.
Pharmacokinetic Analysis. Analyte breath concentrations reported as ppb were converted to ng/mL by multiplying each concentration by the molecular weight of the respective molecule to allow proper functioning of conventional PK software for noncompartmental analysis (WinNonlin 5.2, Pharsight Corporation, St. Louis, Mo.). Estimates were generated for the following PK parameters (abbreviation, unit): first-order elimination rate constant (Lambda Z, min-1), half-life of elimination (Half-life, min), maximal drug concentration (CMAX, μg/mL), time at maximal drug concentration (TMAX, min), area under concentration versus time curve from zero to the last time point (AUC0-LAST, min*μg/mL), area under concentration versus time curve from zero to infinity (AUC0-∞, min*μg/mL), percentage of area under concentration versus time curve from zero to infinity, which is extrapolated from AUC0-t (% AUC Extrap) and the mean residence time (MRT, min). The area under concentration versus time curve (AUC) was calculated using the linear trapezoidal rule. All values are reported separately for each subject as mean±standard deviation following conversion from ng/mL to ppb. […]

[6] = Example 30: sodium alkyl carbonates, stability and breath ketones after ingestion (FIG. 83)
Protocol: Isopropanol (1000 mL) was taken lab reactor and added Na metal (6 g). The reaction mixture was heated to 80° C. for 3 h (sodium metal dissolved, clear solution was observed). The reaction mixture was cooled to 0 to 5° C. and purged CO2 (thick suspension was observed after 30 min). Aliquot were drawn after 30 min, concentrated and the solid obtained was analyzed by 1H NMR. The reaction mixture was allowed to stir for additional 30 min. The complete reaction mixture was rinsed with isopropanol (100 mL) and transferred to an R.B flask, concentrated under vacuum to get white solid. The solid obtained after concentration was dried under vacuum at 40° C. at 1 h to get 26 g of white solid.
Sodium isopropoxy carbonate is formed according to this method. The MAC from isopropanol seems to decompose at 60° C. MAC on treatment with water decomposes and white solid was isolated.
The solution was cooled to between 0 and 5° C. and purged with CO2 for 45 minutes. The resulting suspension was concentrated under high vacuum at 40-50° C. to obtain 15 g of white solid. ^1H-NMR: δ ppm (in D2O)=0.89 (triplet, 3H), 1.17 (doublet, 3H), 1.50 (multiplet, 2H), 4.38 (multiplet, 1H) ^13C-NMR: δ ppm (in D2O)=9.48, 19.59, 28.97, 73.96 and 159.61. IR: ν (cm^−1)=1651, 1458, 1369 and 1289 (indicative of an alkyl carboxylate).
Synthesis 2: Six grams of Na metal was dissolved in 100 mL of anhydrous isopropanol at 80° C. […]

[7] = not given; remark: listed apart in the source
[8] = Example 26: breath d6-acetone after 100 mg d8-isopropanol per diem for 5 days (LTQ-LCMS); details: in vivo; for Half-life: human, 100 mg
Protocol: 100 mg aliquots (125 μL) of neat d8-isopropanol were ingested at 24 h intervals for a period of 5 days. Each aliquot was administered in a size 0 LiCap along with ˜200 mL of water.
Each breath sample consisted of a single full breath exhaled directly into the modified ESI source.
Following the ingestion of each aliquot, breath samples were taken every 2 min for the first 30 min following ingestion, every 5 min from 30-60 min after ingestion and every 10 min from 60-120 min. Additional breath samples were collected at ˜9 h and 20 h after ingestion. After the final dose, breath samples were taken once every 24 h for the next 3 days (total study time=8 days).

clinical = details: human, exhaled breath, oral, 100 mg
[9] = in vivo
Text: FIG. 79. […] The experimental data was curve fit (parameter estimates±SE) to Equation 1 using a non-linear, least squares (Marquardt-Levenburg) algorithm (SigmaPlot 11, Systat Software, Inc., San Jose, Calif.). […] Note: the logarithmic scale is used on the y axis.
These times are indicated by the short vertical lines on the time axis. […] The y axis is plotted on the log 10 scale.
As it relates to the SMART® Adherence System, the concentration rise (rapid absorption of AEM and conversion to EDIM) and decay of the EDIM with time in breath following oral administration of the AEM is well described by a 1 compartmental (monoexponential) pharmacokinetic (PK) model, reflecting absorption and elimination, which can be described by the following equation (dertived from Miller's Anesthesia, 6th Edition, p 81, 2005, Ed: Ronald D. Miller, Elsevier Churchill Livingstone, Philadelphia, Pa.):
In this example, an initial 1st AEM dose pharmacokinetic (PK) analysis over a period of 0 to a maximum of 24 hours is carried out. […] Note: To ensure an accurate EDIM t1/2a ideally the last time point measured in this 1st dose PK analysis includes the EDIM trough concentration (i.e., the concentration at the time point just prior to the 2nd dose). The AEM could either consist of ordinary or non-ordinary cold isotopes, which generate ordinary and non-ordinary cold isotopic labeled EDIMs. The EDIM levels in breath are measured using the appropriate SMART® device type as disclosed herein.

For `CCCCOC(=O)c1ccc(O)cc1` [Butyl paraben], the “Breath Metabolites” value [1] is given as “Butanol + POHBA”.

In the case of `C[S+](C)[O-]` [DMSO, dimethyl sulfoxide], the elimination half life ([2]; humans) is listed as 12 to 15 h and the “permissible daily exposure (PDE)” value [3] is listed as 50 mg/day.

For `CCOC(=O)c1ccc(O)cc1` [Ethyl paraben], the “Breath Metabolites” value [1] is listed as “Ethanol + POHBA”.

In the case of `CCCC(C)O` (centres unmarked) [Formulation 2-pentanol, 2-pentanol], the “LD50 Oral Rat” value ([4]; oral) is given as 1470 mg/kg.

`CCCC(C)=O` [Formulation 2-pentanone, 2-pentanone] showed a Half-life ([5]; both sexes, Half-life) of 0.395 h, an MRT last ([5]; both sexes, MRT0-Last) of 0.42 h and an MRT last ([5]; both sexes, MRT0-last) of 0.423 h. For the same compound, the TMAX ([5]; both sexes, TMAX) was 0.247 h, the “TThresh range between replicates” value ([5]; both) was 5 to 7 min and the AUC0-8 [5] was 58214 min · ppb. For the same compound, the “observed CMAX range” value [5] was 536-2,072 ppb.

In the case of `CC(C)OC(=O)O` [MAC from isopropanol, Sodium Isopropyl Carbonate], the “temperature at which it seems to decompose” value [6] is reported as 60 °C.

In the case of `COC(=O)c1ccc(O)cc1` [Methyl paraben], the “Breath Metabolites” value [1] is given as “Methanol + para- hydroxybenzoic acid (POHBA)”.

For `CC(C)=O` [acetone], the “average elimination half life in humans” value ([2]; Jones, J Anal Toxicol 2000) is listed as 22 h, the “metabolic/elimination half life in humans” value ([2]; Jones, J Anal Toxicol 2000) is listed as 17 to 27 h and the “time for trough concentrations to reach steady state” value (100 mg IPA daily) is listed as 1 to 2 days. The breath concentration (100 mg IPA for 5 successive days, Type 1 (mGC) device) was 2700 to 3000 ppb, the maximum breath concentration (100 mg IPA oral) was 2800 ppb and the “rise of breath concentration over baseline” value (100 mg IPA oral, 15 and 30 min) was “greater than 6 ×”. For the same compound, the “permissible daily exposure (PDE)” value [3] was 210 mg/day, the “CMAX assuming dose proportionality” value ([7]; IPA 138 mg orally per day (PDE)) was 4131 ppb and the Half-life ([8]; elimination half life in breath, Example 26 / FIG. 74, after d8-IPA) was about 6.4 h. The Half-life ([8]; half-life of acetone derived from IPA, exhaled breath) was about 6.5 h and the Half-life (clinical) was under 10 h.

With `[2H]C([2H])([2H])C(=O)C([2H])([2H])[2H]` [d6-acetone] the TMAX ([7]; 100 mg d8-IPA) was 3 h, the “maximum breath concentration (CMAX)” value ([7]; 100 mg d8-IPA, assuming breath acetone of 582 ppb) was 2,993 ppb and the Average k [8] was “Average k = −0.1079”. The “elimination half life in breath” value [8] was 6.4 h, the “exhaled breath peak height” value [8] was 62000 peak height and the “time after a dose up to which deviations from steady state are detectable” value [8] was “up to 65 hours”. For the same compound, the t½ [8] was “t½ ≃ 6.4 h”, the “maximum peak response remaining after 24 h” value ([8]; 24 h) was 6-10% and the TMAX ([9]; human) was 1.46 h. The “steady state CMAX” value ([9]; human) was 1819 ppb, the “CMAX, 1st dose” value ([9]; human, 100 mg) was 1561 ppb and the FLost [9] was 0.859. For the same compound, the “accumulation factor (AF)” value [9] was 1.165 and the “steady state CTrough” value [9] was 267 ppb.

In the case of `[2H]OC([2H])(C([2H])([2H])[2H])C([2H])([2H])[2H]` [d8-IPA, d8-isopropanol], the OrbiTrap peak height ([7]; single 100 mg dose) is reported as 360,000 peak height and the “OrbiTrap response relative to background endogenous breath acetone” value ([7]; single 100 mg dose) is reported as “approximately 5.14 ×”.

In the case of `CCOC(=O)C(C)C` [ethyl isobutyrate], the “LD50 Oral Rat” value ([4]; oral) is given as 13000 mg/kg.

In the case of `CCCCCCOC(C)=O` [hexyl acetate], the “LD50 Oral Rat” value ([4]; oral) is given as 30147 mg/kg.

For `CC(=O)OCCC(C)C` [isoaryl (isopentyl) acetate], the “LD50 Oral Rat” value ([4]; oral) is listed as 16600 mg/kg.

For `CCC(=O)OC` [methyl propionate], the “LD50 Oral Rat” value ([4]; oral) is given as 5000 mg/kg.

In the case of `COC(=O)C(C)C` [methylisobutyrate], the “LD50 Oral Rat” value ([4]; oral) is listed as 5000 mg/kg.

For `CCCOC(C)=O` [propyl acetate], the “LD50 Oral Rat” value ([4]; in vivo, po) is listed as 9370 mg/kg.

From US20170074857A1, “MEDICATION ADHERENCE MONITORING DEVICE” (UNIVERSITY OF FLORIDA RESEARCH FOUNDATION, INC., priority 2014, published 2017)
